The values that follow come from patent US11319299B2, “Substituted carboxamides as inhibitors of WDR5 protein-protein binding” (PROPELLON THERAPEUTICS INC., priority 2016, dated 2022).

In this experiment the target is WDR5 (Homo sapiens (Human), UniProt P61964). Nature of the experiment: Surface Plasmon Resonance (SPR) assay, KD and residence time. It counts as binding. To be noted: surface plasmon resonance (SPR) assay; read-out: WDR5 binding affinity (KD). Here is the method:
(i) Surface Plasmon Resonance (SPR) Assay
The lifetime of a drug on its target is determined by two rate constants: the association rate constant (kon) and the dissociation rate constant (koff). In principle, the lifetime of the binary drug—target complex is thus extended by a rapid rate of drug binding and/or a slow rate of drug—target complex dissociation. The in vivo lifetime of a drug-target complex is most critically dependent on the value of the koff [Nat. Rev. Drug Discov. […] Drug Discov. […] Drug-target residence time is defined as the reciprocal of koff (τ=1/koff), making the residence time a parameter that is easily measured by routine in vitro assay methods.
In general terms: Surface plasmon resonance follows binding to a sensor surface in real time, without labels.

Molecules are shown by their SMILES.

As to `CC1CN(c2cc(F)c(-c3ccc(N4CCOCC4)cc3)cc2NC(=O)c2nn(C)c3ccccc23)CCN1C` (stereo in doubt) [Example 117, N-[4-fluoro-5-(4-morpholin-4-ylphenyl)-2-[(3R)-3,4-dimethylpiperazin-1-yl]phenyl]-1-methylindazole-3-carboxamide], the Kd amounted to 42.8 nM.

For the compound `CC1CN(c2cc(F)c(-c3cnc(N4CCOCC4)nc3)cc2NC(=O)c2cnn(C)c2)CCN1C` (stereo in doubt) [Example 121, N-[4-fluoro-5-(2-morpholin-4-ylpyrimidin-5-yl)-2-[(3R)-3,4-dimethylpiperazin-1-yl]phenyl]-1-methylpyrazole-4-carboxamide], the Kd was 33.4 nM.

For `CC1CN(c2cc(F)c(-c3ccc(N4CCOCC4)cc3)cc2NC(=O)c2cnn(C)c2)CCN1C` (stereo in doubt) [Example 122, N-[4-fluoro-5-(4-morpholin-4-ylphenyl)-2-[(3R)-3,4-dimethylpiperazin-1-yl]phenyl]-1-methylpyrazole-4-carboxamide], the Kd came out at 70.2 nM.

As for `Cc1csc(C(=O)Nc2cc(-c3cnc(N4CCOCC4)nc3)c(F)cc2N2CCN(C)C(C)C2)n1` (stereo in doubt) [Example 181, N-[4-fluoro-5-(2-morpholin-4-ylpyrimidin-5-yl)-2-[(3R)-3,4-dimethylpiperazin-1-yl]phenyl]-4-methyl-1,3-thiazole-2-carboxamide], the Kd is > 200 nM.

Turning to `CC1CN(c2cc(F)c(-c3cnc(N4CCOCC4)nc3)cc2NC(=O)c2csc(CN(C)C)n2)CCN1C` (stereo in doubt) [Example 182, 2-[(dimethylamino)methyl]-N-[4-fluoro-5-(2-morpholin-4-ylpyrimidin-5-yl)-2-[(3R)-3,4-dimethylpiperazin-1-yl]phenyl]-1,3-thiazole-4-carboxamide], the Kd is > 200 nM.

With `CC1CN(c2cc(F)c(-c3cnc(N4CCOCC4)nc3)cc2NC(=O)c2n[nH]cc2Cl)CCN1C` (stereo in doubt) [Example 183, 4-chloro-N-[4-fluoro-5-(2-morpholin-4-ylpyrimidin-5-yl)-2-[(3R)-3,4-dimethylpiperazin-1-yl]phenyl]-1H-pyrazole-3-carboxamide], the Kd was found to be 113 nM.

As for `CC1CN(c2cc(F)c(-c3cnc(N4CCOCC4)nc3)cc2NC(=O)c2ccn(C)n2)CCN1C` (stereo in doubt) [Example 192, N-[4-fluoro-5-(2-morpholin-4-ylpyrimidin-5-yl)-2-[(3R)-3,4-dimethylpiperazin-1-yl]phenyl]-1-methylpyrazole-3-carboxamide], the Kd is 1260 nM.

As to `CC1CN(c2cc(F)c(-c3cnc(N4CCOCC4)nc3)cc2NC(=O)c2cc[nH]n2)CCN1C` (stereo in doubt) [Example 193, N-[4-fluoro-5-(2-morpholin-4-ylpyrimidin-5-yl)-2-[(3R)-3,4-dimethylpiperazin-1-yl]phenyl]-1H-pyrazole-3-carboxamide], the Kd turned out to be 592 nM.

In the case of `Cc1nc(C(=O)Nc2cc(-c3cnc(N4CCOCC4)nc3)c(F)cc2N2CCN(C)C(C)C2)cs1` (stereo in doubt) [Example 194, N-[4-fluoro-5-(2-morpholin-4-ylpyrimidin-5-yl)-2-[(3R)-3,4-dimethylpiperazin-1-yl]phenyl]-2-methyl-1,3-thiazole-4-carboxamide], the Kd worked out at 113 nM.

`Cc1ncc(C(=O)Nc2cc(-c3cnc(N4CCOCC4)nc3)c(F)cc2N2CCN(C)C(C)C2)s1` (stereo in doubt) [Example 195, N-[4-fluoro-5-(2-morpholin-4-ylpyrimidin-5-yl)-2-[(3R)-3,4-dimethylpiperazin-1-yl]phenyl]-2-methyl-1,3-thiazole-5-carboxamide]: the Kd was found to be 106 nM.

For the compound `CC(=O)Nc1ccc(-c2cc(NC(=O)c3c[nH]c(=O)cc3C(F)(F)F)c(N3CCN(C)C(C)C3)cc2F)cn1` (stereo in doubt) [Example 196, N-[5-(6-acetamidopyridin-3-yl)-4-fluoro-2-[(3R)-3,4-dimethylpiperazin-1-yl]phenyl]-6-oxo-4-(trifluoromethyl)-1H-pyridine-3-carboxamide], the Kd was 0.24 nM.

As for `CC1CN(c2cc(F)c(-c3ccc(OCC4CC4)nc3)cc2NC(=O)c2c[nH]c(=O)cc2C(F)(F)F)CCN1C` (stereo in doubt) [Example 198, N-[5-[6-(cyclopropylmethoxy)pyridin-3-yl]-4-fluoro-2-[(3R)-3,4-dimethylpiperazin-1-yl]phenyl]-6-oxo-4-(trifluoromethyl)-1H-pyridine-3-carboxamide], the Kd was found to be 0.666 nM.

As to `Cc1nc(C(F)(F)F)c(C(=O)Nc2cc(-c3cnc(N4CCOCC4)nc3)c(F)cc2N2CCN(C)C(C)C2)s1` (stereo in doubt) [Example 199, N-[4-fluoro-5-(2-morpholin-4-ylpyrimidin-5-yl)-2-[(3R)-3,4-dimethylpiperazin-1-yl]phenyl]-2-methyl-4-(trifluoromethyl)-1,3-thiazole-5-carboxamide], the Kd was 23.4 nM.

As to `CC1CN(c2cc(F)c(-c3cnc(N4CCOCC4)nc3)cc2NC(=O)c2cc(Cl)cc(Cl)c2)CCN1C` (stereo in doubt) [Example 200, 3,5-dichloro-N-[4-fluoro-5-(2-morpholin-4-ylpyrimidin-5-yl)-2-[(3R)-3,4-dimethylpiperazin-1-yl]phenyl]benzamide], the Kd is 9.7 nM.

Turning to `CC1CN(c2cc(F)c(-c3cccc(CN(C)C4COC4)c3)cc2NC(=O)c2c[nH]c(=O)cc2C(F)(F)F)CCN1C` (stereo in doubt) [Example 214, N-[4-fluoro-5-[3-[[methyl(oxetan-3-yl)amino]methyl]phenyl]-2-[(3R)-3,4-dimethylpiperazin-1-yl]phenyl]-6-oxo-4-(trifluoromethyl)-1H-pyridine-3-carboxamide], the Kd turned out to be 2.15 nM.

Turning to `CC(=O)Nc1ccc(-c2cc(NC(=O)c3cn(C)c(=O)cc3C(F)F)c(N3CCN(C)C(C)C3)cc2F)cn1` (stereo in doubt) [Example 217, N-[5-(6-acetamidopyridin-3-yl)-4-fluoro-2-[(3R)-3,4-dimethylpiperazin-1-yl]phenyl]-4-(difluoromethyl)-1-methyl-6-oxopyridine-3-carboxamide], the Kd was determined as 4.32 nM.

Turning to `CC1CN(c2cc(F)c(-c3cnc(C#N)nc3)cc2NC(=O)c2cn(C)c(=O)cc2C(F)F)CCN1C` (stereo in doubt) [Example 218, N-[5-(2-cyanopyrimidin-5-yl)-4-fluoro-2-[(3R)-3,4-dimethylpiperazin-1-yl]phenyl]-4-(difluoromethyl)-1-methyl-6-oxopyridine-3-carboxamide], the Kd is 3.18 nM.

Turning to `CC1CN(c2cc(F)c(-c3ccc(N(C)C)nc3)cc2NC(=O)c2c[nH]c(=O)cc2C(F)(F)F)CCN1C` (stereo in doubt) [Example 219, N-[5-[6-(dimethylamino)pyridin-3-yl]-4-fluoro-2-[(3R)-3,4-dimethylpiperazin-1-yl]phenyl]-6-oxo-4-(trifluoromethyl)-1H-pyridine-3-carboxamide], the Kd was 1.4 nM.

With `CC1CN(c2cc(F)c(-c3cnc(N4CCOCC4)nc3)cc2NC(=O)c2ccc(F)cc2Cl)CCN1C` (stereo in doubt) [Example 230, 2-chloro-4-fluoro-N-[4-fluoro-5-(2-morpholin-4-ylpyrimidin-5-yl)-2-[(3R)-3,4-dimethylpiperazin-1-yl]phenyl]benzamide], the Kd worked out at 8.95 nM.

Consider `CC1CN(c2cc(F)c(-c3ccc(N4CCOCC4)nc3)cc2NC(=O)c2c[nH]c(=O)cc2C(F)(F)F)CCN1C` (stereo in doubt) [Example 239, N-[4-fluoro-5-(6-morpholin-4-ylpyridin-3-yl)-2-[(3R)-3,4-dimethylpiperazin-1-yl]phenyl]-6-oxo-4-(trifluoromethyl)-1H-pyridine-3-carboxamide], for which the Kd is 1.07 nM.

For `CC(C)Oc1ncc(-c2cc(NC(=O)c3c[nH]c(=O)cc3C(F)(F)F)c(N3CCN(C)C(C)C3)cc2F)cn1` (stereo in doubt) [Example 240, N-[4-fluoro-5-(2-propan-2-yloxypyrimidin-5-yl)-2-[(3R)-3,4-dimethylpiperazin-1-yl]phenyl]-6-oxo-4-(trifluoromethyl)-1H-pyridine-3-carboxamide], the Kd amounted to 2.23 nM.

`CC1CN(c2cc(F)c(-c3cnc4c(c3)OCCO4)cc2NC(=O)c2c[nH]c(=O)cc2C(F)(F)F)CCN1C` (stereo in doubt) [Example 241, N-[5-(2,3-dihydro-[1,4]dioxino[2,3-b]pyridin-7-yl)-4-fluoro-2-[(3R)-3,4-dimethylpiperazin-1-yl]phenyl]-6-oxo-4-(trifluoromethyl)-1H-pyridine-3-carboxamide]: the Kd was 2.82 nM.

For `CC1CN(c2cc(F)c(-c3cnc(N4CCOCC4)nc3)cc2NC(=O)c2cn(C)nc2C(F)(F)F)CCN1C` (stereo in doubt) [Example 284, N-[4-fluoro-5-(2-morpholin-4-ylpyrimidin-5-yl)-2-[(3R)-3,4-dimethylpiperazin-1-yl]phenyl]-1-methyl-3-(trifluoromethyl)pyrazole-4-carboxamide], the Kd was determined as 8.13 nM.

With `CC1CN(c2cc(F)c(-c3cnc(N4CCOCC4)nc3)cc2NC(=O)c2ccc(F)cc2C(F)(F)F)CCN1C` (stereo in doubt) [Example 298, 4-fluoro-N-[4-fluoro-5-(2-morpholin-4-ylpyrimidin-5-yl)-2-[(3R)-3,4-dimethylpiperazin-1-yl]phenyl]-2-(trifluoromethyl)benzamide], the Kd worked out at 4.22 nM.

Regarding `CC1CN(c2cc(F)c(-c3cnc(N4CCOCC4)nc3)cc2NC(=O)c2ccc(F)cc2C(F)(F)F)CCN1C` (stereo in doubt) [Example 299, 4-fluoro-N-[4-fluoro-5-(2-morpholin-4-ylpyrimidin-5-yl)-2-[(3R)-3,4-dimethylpiperazin-1-yl]phenyl]-2-(trifluoromethyl)benzamide], the Kd was 0.569 nM.

One may read the Kd as the constant that tells how readily two partners part at equilibrium.
